From ChEMBL document CHEMBL3102782, “Current status of the research and development of diacylglycerol O-acyltransferase 1 (DGAT1) inhibitors” (J Med Chem, 2013)

Key:
Mus musculus = assay: Toxicity in DIO C57BL6 mouse assessed as body weight loss at 30 mg/kg, po administered qd from day 1 to 7 and bid from day 8 to 14 followed by single dose on day 15 morning; assay type: organism-based; design: dose 30 mg/kg, route oral; conditions: in vivo
Homo sapiens [1] = species on record: Homo sapiens; assay: Reduction of triglyceride AUC in human; assay type: functional, organism-based
Homo sapiens [2] = species on record: Homo sapiens; assay: Reduction of triglyceride AUC in human relative to baseline; assay type: functional; design: scale not given: the % may be the effect or the level left
[3] = Tmax in human; assay type: ADME, organism-based; conditions: in vivo
Homo sapiens [4] = species on record: Homo sapiens; assay: Reduction of triglyceride AUC in human at 60 mg; assay type: functional; design: scale not given: the % may be the effect or the level left
Homo sapiens [5] = species on record: Homo sapiens; assay: Reduction of triglyceride AUC in human receiving 60% fat meal at >5 mg; assay type: functional; design: scale not given: the % may be the effect or the level left
Homo sapiens [6] = assay: Reduction in triglycerides in familial chylomicronemia syndrome patients measured after 3 weeks of compound dosing; assay type: functional; design: scale not given: the % may be the effect or the level left

For `CC1(C)Oc2ncnc(N)c2N=C1c1ccc([C@H]2CC[C@H](CC(=O)O)CC2)cc1`, the Activity (Mus musculus) was 6.7%.

`Cc1nc(C)c(-c2ccc(C3CCC(CC(=O)O)CC3)cc2)nc1C(N)=O` (configuration not stated) [AZD-7687] gave an EC50 (Homo sapiens [1]) of 440 nM, an Activity (Homo sapiens [2]) of 84% and a Tmax [3] of 1 h. The Activity (Homo sapiens [4]) was 50% and the Activity (Homo sapiens [5]) was >75%.

`O=C(O)C[C@H]1CC[C@H](c2ccc(-c3ccc(Nc4ccc(C(F)(F)F)nc4)cn3)cc2)CC1` [PRADIGASTAT] gave an Activity (Homo sapiens [6]) of 38.4%.
